Source: PubChem BioAssay (NCI)
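Test compounds were applied to cells in 96-well plates for 48 hours at 5 doses. TGI marks complete inhibition of growth.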

Columns and labels:
Experiment in all cases: inhibition of tumour cell growth, NCI panel, 48 h
[1] = system: SK-MEL-2 melanoma
[2] = system: NCI-H522 lung
[3] = system: SK-MEL-5 melanoma
[4] = system: PC-3 prostate
[5] = system: BT-549 breast
[6] = system: SW-620 colon
[7] = system: OVCAR-5 ovarian
[8] = system: OVCAR-4 ovarian
[9] = system: M14 melanoma
[10] = system: KM12 colon
[11] = system: HCT-116 colon
[12] = system: OVCAR-8 ovarian
[13] = system: MDA-MB-435
[14] = system: UO-31 renal
[15] = system: A549 NSCLC
[16] = system: SNB-19 CNS
[17] = system: U251 CNS
[18] = system: A498 renal
[19] = system: MCF7 breast
[20] = system: MDA-MB-231 breast
[21] = system: HT29 colon
[22] = system: NCI/ADR-RES ovarian
[23] = system: HS 578T breast
[24] = system: UACC-62 melanoma
[25] = system: HL-60(TB) leukemia
[26] = system: UACC-257 melanoma
[27] = system: SF-295 CNS
[28] = system: SNB-75 CNS
[29] = system: NCI-H23 lung
[30] = system: MDA-N
[31] = system: SK-MEL-28 melanoma
[32] = system: HOP-62 NSCLC
[33] = system: SN12C renal
[34] = system: DU-145 prostate
[35] = system: NCI-H460 lung
[36] = system: OVCAR-3 ovarian
[37] = system: HOP-92 NSCLC
[38] = system: SF-539 CNS
[39] = system: EKVX NSCLC
[40] = system: CCRF-CEM leukemia
[41] = system: 786-0 renal
[42] = system: COLO 205 colon
[43] = system: NCI-H226 lung
[44] = system: ACHN renal
[45] = system: IGROV1 ovarian
[46] = system: MOLT-4 leukemia
[47] = system: LOX IMVI melanoma
[48] = system: CAKI-1 renal
[49] = system: HCC-2998 colon
[50] = system: TK-10 renal
[51] = system: SR leukemia
[52] = system: K-562 leukemia
[53] = system: RXF 393 renal
[54] = system: HCT-15 colon
[55] = system: RPMI-8226 leukemia
[56] = system: SF-268 CNS
[57] = system: T-47D breast
[58] = system: SK-OV-3 ovarian
[59] = system: MALME-3M melanoma

Cc1ccccc1-n1c(=O)nc2n(-c3ccc(C(C)(C)C)cc3)c3ccccc3cc-2c1=O
TGI [1]: 34.8 µM
TGI [2]: 47.6 µM
TGI [3]: 28.5 µM
TGI [4]: 45.6 µM
TGI [5]: 69.6 µM
TGI [6]: 33.5 µM
TGI [7]: 63.6 µM
TGI [8]: 92.5 µM
TGI [9]: 32.4 µM
TGI [10]: 29.8 µM
TGI [11]: 28.8 µM
TGI [12]: 42.9 µM
TGI [13]: 27.9 µM
TGI [14]: 95.1 µM
TGI [15]: > 100 µM
TGI [16]: 54.4 µM
TGI [17]: 28.3 µM
TGI [18]: 86.6 µM
TGI [19]: 59.9 µM
TGI [20]: 42.9 µM
TGI [21]: 34.6 µM
TGI [22]: 40.6 µM
TGI [23]: 79.7 µM
TGI [24]: 41 µM
TGI [25]: 43.2 µM
TGI [26]: 37.1 µM
TGI [27]: 53.1 µM
TGI [28]: 66.3 µM
TGI [29]: 58.2 µM
TGI [30]: 82.4 µM
TGI [31]: 28.7 µM
TGI [32]: 39.7 µM
TGI [33]: 38.1 µM
TGI [34]: 77.1 µM
TGI [35]: 28.7 µM
TGI [36]: 40.9 µM
TGI [37]: 50.1 µM
TGI [38]: 36 µM
TGI [39]: 64.6 µM
TGI [40]: 50.5 µM
TGI [41]: 69.9 µM
TGI [42]: 41.6 µM
TGI [43]: 38.2 µM
TGI [44]: > 100 µM
TGI [45]: 64.5 µM
TGI [46]: 55.1 µM
TGI [47]: 30.3 µM
TGI [48]: 71.4 µM
TGI [49]: 32.4 µM
TGI [50]: > 100 µM
TGI [51]: 59.7 µM
TGI [52]: > 100 µM
TGI [53]: 39 µM
TGI [54]: 32.8 µM
TGI [55]: 52.9 µM
TGI [56]: 83.2 µM
TGI [57]: > 100 µM

CC1CCC2C(C(=O)O[C@H]3C4C=CO[C@@H](OC5OC(CO)C(O)C(O)C5O)C4[C@@]4(CO)O[C@@H]34)=CO[C@@H](OC3OC(CO)C(O)C(O)C3O)C12 (some centres not stated)
TGI [1]: > 10 µM
TGI [2]: > 10 µM
TGI [3]: > 10 µM
TGI [4]: > 10 µM
TGI [5]: > 10 µM
TGI [6]: > 10 µM
TGI [7]: > 10 µM
TGI [8]: > 10 µM
TGI [9]: > 10 µM
TGI [10]: > 10 µM
TGI [11]: > 10 µM
TGI [12]: > 10 µM
TGI [13]: > 10 µM
TGI [14]: > 10 µM
TGI [58]: > 10 µM
TGI [15]: > 10 µM
TGI [16]: > 10 µM
TGI [17]: > 10 µM
TGI [18]: > 10 µM
TGI [19]: > 10 µM
TGI [20]: > 10 µM
TGI [21]: > 10 µM
TGI [22]: > 10 µM
TGI [23]: > 10 µM
TGI [24]: > 10 µM
TGI [25]: > 10 µM
TGI [26]: > 10 µM
TGI [27]: > 10 µM
TGI [28]: > 10 µM
TGI [29]: > 10 µM
TGI [30]: > 10 µM
TGI [31]: > 10 µM
TGI [32]: > 10 µM
TGI [59]: > 10 µM
TGI [33]: > 10 µM
TGI [34]: > 10 µM
TGI [35]: > 10 µM
TGI [36]: > 10 µM
TGI [37]: > 10 µM
TGI [38]: > 10 µM
TGI [39]: > 10 µM
TGI [40]: > 10 µM
TGI [41]: > 10 µM
TGI [42]: > 10 µM
TGI [43]: > 10 µM
TGI [44]: > 10 µM
TGI [45]: > 10 µM
TGI [46]: > 10 µM
TGI [47]: > 10 µM
TGI [48]: > 10 µM
TGI [49]: > 10 µM
TGI [50]: > 10 µM
TGI [52]: > 10 µM
TGI [53]: > 10 µM
TGI [54]: > 10 µM
TGI [55]: > 10 µM
TGI [56]: > 10 µM
TGI [57]: > 10 µM

CCOC1OC(CO[Si](C)(C)C(C)(C)C)C(O)CC1n1ccc(=O)[nH]c1=O (configuration not stated)
TGI [1]: > 100 µM
TGI [2]: 45.6 µM
TGI [3]: > 100 µM
TGI [4]: > 100 µM
TGI [5]: > 100 µM
TGI [6]: 52 µM
TGI [7]: > 100 µM
TGI [8]: > 100 µM
TGI [9]: > 100 µM
TGI [10]: > 100 µM
TGI [11]: 30.7 µM
TGI [12]: > 100 µM
TGI [13]: > 100 µM
TGI [14]: > 100 µM
TGI [15]: > 100 µM
TGI [16]: > 100 µM
TGI [17]: > 100 µM
TGI [18]: > 100 µM
TGI [19]: 88.7 µM
TGI [20]: > 100 µM
TGI [21]: > 100 µM
TGI [22]: > 100 µM
TGI [23]: > 100 µM
TGI [24]: > 100 µM
TGI [26]: > 100 µM
TGI [27]: > 100 µM
TGI [28]: > 100 µM
TGI [29]: > 100 µM
TGI [30]: > 100 µM
TGI [31]: > 100 µM
TGI [59]: > 100 µM
TGI [33]: > 100 µM
TGI [34]: > 100 µM
TGI [35]: > 100 µM
TGI [36]: > 100 µM
TGI [37]: > 100 µM
TGI [38]: > 100 µM
TGI [39]: > 100 µM
TGI [41]: > 100 µM
TGI [42]: > 100 µM
TGI [43]: > 100 µM
TGI [44]: > 100 µM
TGI [45]: 48.6 µM
TGI [46]: 69.1 µM
TGI [47]: 31.6 µM
TGI [48]: > 100 µM
TGI [49]: > 100 µM
TGI [50]: > 100 µM
TGI [51]: > 100 µM
TGI [52]: 73.1 µM
TGI [53]: > 100 µM
TGI [54]: > 100 µM
TGI [55]: > 100 µM
TGI [56]: > 100 µM
TGI [57]: > 100 µM

Cc1ccnn1CCc1ccc(Cl)cc1Cl
TGI [3]: 37.7 µM
TGI [4]: > 100 µM
TGI [5]: 31.3 µM
TGI [6]: > 100 µM
TGI [7]: > 100 µM
TGI [8]: > 100 µM
TGI [9]: > 100 µM
TGI [10]: > 100 µM
TGI [11]: > 100 µM
TGI [12]: > 100 µM
TGI [13]: > 100 µM
TGI [14]: 46.3 µM
TGI [58]: > 100 µM
TGI [15]: > 100 µM
TGI [16]: > 100 µM
TGI [17]: > 100 µM
TGI [19]: > 100 µM
TGI [20]: > 100 µM
TGI [21]: > 100 µM
TGI [22]: > 100 µM
TGI [23]: > 100 µM
TGI [24]: 29.1 µM
TGI [25]: 42.4 µM
TGI [26]: > 100 µM
TGI [27]: 52.9 µM
TGI [28]: > 100 µM
TGI [29]: > 100 µM
TGI [30]: > 100 µM
TGI [31]: > 100 µM
TGI [32]: 32.5 µM
TGI [59]: > 100 µM
TGI [33]: > 100 µM
TGI [34]: > 100 µM
TGI [35]: > 100 µM
TGI [36]: 45.3 µM
TGI [38]: 49.6 µM
TGI [39]: 20.7 µM
TGI [40]: > 100 µM
TGI [42]: > 100 µM
TGI [44]: > 100 µM
TGI [45]: > 100 µM
TGI [46]: 56.6 µM
TGI [47]: > 100 µM
TGI [48]: > 100 µM
TGI [50]: 48.1 µM
TGI [51]: > 100 µM
TGI [52]: > 100 µM
TGI [53]: 82.9 µM
TGI [54]: > 100 µM
TGI [55]: 38.2 µM
TGI [56]: > 100 µM
TGI [57]: > 100 µM
